Where two headings read alike, the source gives them in different places.
What was measured:
[1] = system: Plasmodium falciparum Dd2 asexual blood stage parasites; assay: microbe, parasite or virus in culture; parameters: species or system Plasmodium falciparum Dd2 in human erythrocytes; single determination (one 11-point concentration-response curve); conditions: Plasmodium falciparum, DD2, Erythrocyte, 72 h
HepG2 = conditions: human, hepg2 cells, 48 h
in vitro = conditions: human, hepg2 cells

Row | Log AC50 (M) (HepG2) | SMILES | AC50 ([1]; read-out: AC50) [µM] | CC50 at 48 h (in vitro) [µM] | AC50 [1] [µM]
1 | -4.3643 | COC(=O)C1=C(C)NC(C)=C(C(=O)OCCCN2CCC(c3ccccc3)(c3ccccc3)CC2)C1c1cccc([N+](=O)[O-])c1.Cl (stereo not drawn) [NCGC00163135-01] |  | 43.2 | 2.99
2 | -4.5643 | COc1cc2c(Nc3ccc(Br)cc3F)ncnc2cc1OCC1CCN(C)CC1 [NCGC00167513-01] | 5.96 | 27.3 | 
3 | -4.3643 | COc1ccccc1-c1ccc(CN2CCCC(c3nc4ccc(F)cc4c(=O)[nH]3)C2)cc1 (stereo not drawn) [NCGC00377223-02] | 8.41 | 43.2 | 
4 | -4.3028 | O[C@H]1[C@H](NCC2CCCCC2)[C@H]2CO[C@H](O2)[C@@H]1N1CCC(Cc2ccccc2)CC1 [NCGC00394729-01] | 1.37 | 49.8 | 
5 | -4.5643 | O=C(Nc1ccc([C@H]2OCC(=O)N(Cc3ccncc3)[C@@H]2CO)cc1)c1ccc(C(F)(F)F)cc1 [NCGC00395114-01] | 16.8 | 27.3 | 
6 | -4.3528 | CC(C)C[C@@H]1N[C@H](C(=O)NC(C)C)Cc2cn(Cc3ccncc3)c3cccc1c23 [NCGC00395386-01] | 17.2 | 44.4 | 
7 | -4.4143 | CC(C)(C)c1ccc(-c2cc(C[C@H]3CNCC[C@H]3CC(=O)N3CCN(c4ccccn4)CC3)no2)cc1 [NCGC00400637-01] | 15 | 38.5 | 
8 | -4.2528 | COc1cccc(Nc2ccc3c(n2)C(C)(C(=O)NC2CCN(C)CC2)CN(C)C3)c1 (stereo not drawn) [NCGC00414505-01] | 17.2 | 55.9 | 
9 | -4.4643 | CC1=C[C@@H](CNCc2cccnc2)[C@H](C(C)C)C[C@H]1Cc1nnc(-c2ccc(N(C)C)cc2)o1 [NCGC00421481-01] | 5.31 | 34.3 | 
10 | -4.3643 | CCCC1=Nc2cc(C(=O)NCCCN3CCCCC3CC)ccc2Sc2ccc(C)cc21 (stereo not drawn) [NCGC00424661-01] | 9.44 | 43.2 | 
11 | -4.4143 | Cc1cccc(CN2CCCC(O)(CNCc3ncccc3C)C2=O)c1 (stereo not drawn) [NCGC00429062-01] | 16.8 | 38.5 | 

More lines, now with the values behind:

Row | SMILES | Log AC50 (M) (HepG2) | AC50 ([1]; read-out: AC50) [µM] | CC50 at 48 h (in vitro) [µM] | AC50 [1] [µM]
12 | CCN(CC)CCOC(=O)c1ccc(NC(=O)c2cc3c(=O)n(CC)c4ccccc4c3s2)cc1 [NCGC00110417-01] | -4.3143 | 2.66 | 48.5 | 
13 | COc1cc(C2CC(=O)N(Cc3ccc(F)cc3)c3ccccc3S2)cc(OC)c1OC (stereo not drawn) [NCGC00112401-01] | -4.5643 | 2.11 | 27.3 | 
14 | CCCN1CCN(CCCNC(=O)c2ccc3c(c2)sc2nc(-c4ccc(OCC)cc4)cn23)CC1 [NCGC00113254-01] | -4.6143 | 4.22 | 24.3 | 
15 | CCCCN(C)CCCNC(=O)Cn1ncc2c3ccccc3n(Cc3cc(C)ccc3C)c2c1=O [NCGC00114267-01] | -4.4643 | 0.75 | 34.3 | 
16 | CCCCN1C(=O)c2[nH]nc(-c3ccccc3O)c2C1c1ccc(OCc2ccccc2)cc1 (stereo not drawn) [NCGC00115502-01] | -4.3643 | 5.96 | 43.2 | 
17 | CCC1CCCCN1CCCNC(=O)c1ccc2c(c1)sc1nc(-c3ccc(F)cc3)cn12 (stereo not drawn) [NCGC00121679-01] | -4.4643 | 1.5 | 34.3 | 
18 | CC1CCCCN1CCCNC(=O)c1ccc2c(c1)sc1nc(-c3ccc(F)cc3)cn12 (stereo not drawn) [NCGC00121681-01] | -4.5143 | 1.88 | 30.6 | 
19 | Cc1cc(N2CCN(C)CC2)nc2ccc(NC(=O)Nc3cccc(Cl)c3)cc12 [NCGC00126479-01] | -4.3643 | 4.22 | 43.2 | 
20 | CCOc1ccccc1NC(=O)Nc1ccc2nc(N3CCN(C)CC3)cc(C)c2c1 [NCGC00126491-01] | -4.3643 | 1.33 | 43.2 | 
21 | CC(C)(C)OC(=O)N1CCC(c2c(C(=O)NCCN3CCC(Cc4ccccc4)CC3)cnn2-c2ccc(F)cc2)CC1 [NCGC00126694-01] | -4.3643 | 5.31 | 43.2 | 
22 | Cc1ccc(C)c(N2CCN(CCCNC(=O)c3cnn(-c4ccc(F)cc4)c3C3CCN(C(=O)OC(C)(C)C)CC3)CC2)c1 [NCGC00126698-01] | -4.3643 | 2.66 | 43.2 | 
23 | Cc1ccc(C)c(N2CCN(CCCNC(=O)c3cnn(-c4cccc(Cl)c4)c3C3CCN(C(=O)OC(C)(C)C)CC3)CC2)c1 [NCGC00126914-01] | -4.3643 | 8.41 | 43.2 | 
24 | COc1ccc(C2=CC(c3ccc(F)cc3)n3ncc(C(=O)Nc4ccc(C)cc4)c3N2)cc1 (stereo not drawn) [NCGC00127228-01] | -4.5143 | 2.37 | 30.6 | 
25 | CCOc1ccc(C2=C(C(C)=O)Sc3nnc(C)n3N2C(C)=O)cc1 [NCGC00137200-01] | -4.3643 | 5.31 | 43.2 | 
26 | CC(=O)C1=C(c2ccc(Cl)c(Cl)c2)N(C(C)=O)n2cnnc2S1 [NCGC00137238-01] | -4.3643 | 3.76 | 43.2 | 
27 | CCCCN(CC)CCCNC(=O)c1ccc2c(c1)N(Cc1ccc(C)cc1)C(=O)c1ccccc1S2 [NCGC00139764-01] | -4.3643 | 1.88 | 43.2 | 
28 | CN1CCC(Nc2ncc3ncnc(Nc4ccc(F)c(Cl)c4)c3n2)CC1.Cl.Cl [NCGC00161422-01] | -4.7643 | 10.6 | 17.2 | 
29 | COC(=O)C1=C(C)NC(C)=C(C(=O)OC(C)(C)CN(C)CCC(c2ccccc2)c2ccccc2)C1c1cccc([N+](=O)[O-])c1.Cl (stereo not drawn) [NCGC00167492-01] | -4.6143 | 2.99 | 24.3 | 
30 | CC(C)(C)c1ccc(NC(=O)OC[C@H]2C[C@@H]3CCN2C[C@@H]3c2cc(C3CCCC3)nc(-c3ccncc3)n2)cc1 [NCGC00391636-01] | -4.3643 | 2.11 | 43.2 | 
31 | Cc1nc(-c2ccccc2)cc([C@H]2CN3CC[C@H]2C[C@@H]3CN(Cc2ccco2)Cc2ccco2)n1 [NCGC00392555-01] | -4.5143 | 2.99 | 30.6 | 
32 | CCC(CC)c1cc([C@H]2CN3CC[C@H]2C[C@@H]3COC(=O)Nc2ccc(C(C)(C)C)cc2)nc(-c2ccncc2)n1 [NCGC00394559-01] | -4.3643 | 2.11 | 43.2 | 
33 | COc1cc2c(cc1OCc1ccccc1)N(C(=O)c1cc3ccccc3n1C)CC21CCN(C)CC1 [NCGC00419848-01] | -4.3643 | 2.11 | 43.2 | 
34 | Cc1ccc([S+](=O)([O-])NC[C@H]2C[C@@H]3CC[N@]2C[C@@H]3CN2CCc3ccccc32)cc1 [NCGC00421178-01] | -4.2528 |  | 55.9 | 13.7
35 | COc1ccc(NC(=O)OC[C@H]2C[C@@H]3CCN2C[C@@H]3c2cc(C3CCCC3)nc(-c3ccncc3)n2)cc1 [NCGC00421346-01] | -4.3643 | 4.22 | 43.2 | 

Reference: publication PMC7822874, “Chemoprotective antimalarials identified through quantitative high-throughput screening of Plasmodium blood and liver stage parasites” (Scientific Reports, 2021)
